Read-outs that look alike come from different tables or passages of the source.
Tests used:
[1] = tested on: SRS-A / leukotriene release from antigen-challenged, sensitized guinea pig lung; test: Inhibition of SRS-A (leukotriene) release from antigen-challenged, sensitized guinea pig lung; assay type: cell-based; set-up: inhibition: dose or concentration left out as unconfirmed; settings: Cavia porcellus; for inhibition: Dose 30 μm (μM)
Excerpt: The anti-allergy method of this invention is identified by tests which measure a compound's inhibition of leukotriene release in sensitized guinea pigs. Sensitized guinea pigs are killed by a blow to the head and the lungs removed and cleaned of visible connective tissue, trachea and large blood vessels. The lungs from individual animals are sliced into fragments approximately 1 mm in thickness using a McIlwain tissue chopper and then washed with oxygenated Tyrode's buffer. Weighed aliquots (approximately 400 mg wet weight) of lung are transferred into vials containing 2 ml of fresh Tyrode's solution (containing 10 mM cysteine) and incubated in the presence or absence of test compound for 12 min at 37° C. The tissues are then challenged with 20 μg ovalbumin/ml (final concentration) and incubated for 15 min. To measure leukotriene release, an aliquot of supernatant fluid is extracted with 4 volumes of 100% ethanol. After removal of the precipitated protein, the clear fluid is dried under a stream of N2 gas. The leukotriene content is measured by a radioimmunoassay using [^3 H]LTC4 and antiserum obtained from New England Nuclear. The cross-reactivity of the antiserum for LTD4 is 55%. Percent inhibition of lekotriene release is calculated by comparing for each lung the release in the presence of the test compound to that in the absence of test compound. Representative compounds of the invention at a relative dose of 50 μM of tissue are found to inhibit leukotriene release in the test procedure as indicated below in Table 1: […]

5-lipoxygenase = biological target: T1, 5-lipoxygenase (Homo sapiens, UniProt P09917); test: 5-Lipoxygenase assay with human neutrophils; assay type: cell-based; settings: 5 min, Human PMN; for inhibition at 15 µM: dose 15 μm (μM)
T1 construct: Human polymorphonuclear leukocytes (neutrophils) were obtained from normal healthy volunteers; endogenous in cells; host or cells: human blood neutrophils from healthy volunteers
T1 sequence (P09917 1-674): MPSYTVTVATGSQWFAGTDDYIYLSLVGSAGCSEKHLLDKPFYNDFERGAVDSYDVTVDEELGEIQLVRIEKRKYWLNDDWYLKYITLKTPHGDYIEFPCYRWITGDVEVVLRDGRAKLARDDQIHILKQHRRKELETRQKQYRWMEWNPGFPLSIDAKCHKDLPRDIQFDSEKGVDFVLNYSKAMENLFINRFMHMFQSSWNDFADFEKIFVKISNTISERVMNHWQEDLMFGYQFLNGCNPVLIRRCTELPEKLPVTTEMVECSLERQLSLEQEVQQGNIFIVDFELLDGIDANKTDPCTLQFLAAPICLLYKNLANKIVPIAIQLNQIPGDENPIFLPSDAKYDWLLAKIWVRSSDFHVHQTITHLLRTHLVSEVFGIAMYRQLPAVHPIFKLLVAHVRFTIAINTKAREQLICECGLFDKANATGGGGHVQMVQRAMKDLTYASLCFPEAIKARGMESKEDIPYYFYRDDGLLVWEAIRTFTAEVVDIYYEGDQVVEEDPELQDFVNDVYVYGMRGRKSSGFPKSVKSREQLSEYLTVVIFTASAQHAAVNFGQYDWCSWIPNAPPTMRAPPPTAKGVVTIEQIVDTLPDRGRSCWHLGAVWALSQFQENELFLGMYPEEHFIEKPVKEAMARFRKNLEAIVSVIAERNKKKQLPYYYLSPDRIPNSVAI
Experimental: Human polymorphonuclear leukocytes (neutrophils) were obtained from normal healthy volunteers by venipuncture and collected with heparin anticoagulant. Neutrophils were isolated by Dextran/Ficol sedimentation as described (Billah et al., J. Biol. Chem. 260, 6899-6906 (1985)). In brief, 30 ml of blood was mixed with 5 ml of dextran (Sigma) solution and kept at 37° C. for 30 min. The upper white cell-rich layer was removed and 10 ml was layered on 9 ml of Ficol-Paque solution (Pharmacia) and centrifuged at 280 xg for 10 min. at 5° C. The supernatant was removed and the neutrophil pellet was resuspended in HEPES buffer containing 25 mM N-2-hydroxyethylpiperazine-N^1 -2-ethanesulfonic acid HEPES, 125 mM NaCl, 2.5 mM KCl, 0.7 mM MgCl2, […] 10 mM glucose at pH 7.4. The red cells in the suspension were lysed by hypotonic shock. The neutrophils were washed by centrifugation in HEPES buffer two times and finally resuspended at a concentration of 20×10^6 cells/ml in the presence of 1 mM CaCl2.
Neutrophils (0.2 ml of suspension) were preincubated with dimethylsulfoxide (DMSO) vehicle with or without test compound (1 ul) for 4 minutes then incubated for 5 minutes with [^14 C] arachidonic acid (Amersham, 59 Ci/mole) at a 9 uM final concentration, and the calcium ionophore A23187 (Calbiochem) at a 1 uM final concentration. These stimulants were added in 10 ul of water:ethanol (9:1). The reaction was stopped by addition of methanol (0.4 ml), and cellular debris was removed by centrifugation. Aliquots (100 ul) of the incubations were run on a Waters two pump HPLC system fitted with a DuPont Zorbax ODS, 5u, […] Reliance Cartridge column and C18 "Guard Pak". The column was initially eluted at 2 ml/min with 80% of the mixture water:methanol:acetic acid (46:54:0.08) containing 1 mM EDTA adjusted to pH 6.0 with ammonium hydroxide (Pump A) and 20% methanol (Pump B). At 10 minutes, a linear gradient to reach 100% methanol (Pump B) at 27 minutes was established. Between 27 and 28 minutes, methanol was exchanged for the initial eluting solvent and by 35 minutes the column had been reequilibrated for the next sample. The effluent was analyzed by a continuous flow radioactivity monitor (model ROMONA-D) interfaced with a Hewlett Packard Lab Automation System for quantitation of radioactive products. These were predominantly leukotriene B4 (LTB4) which eluted at 7 minutes, and 5-hydroxyeicosatetraenoic acid (5-HETE) which eluted at 20 minutes.

| SMILES | inhibition at 15 µM (5-lipoxygenase; read-out: % Inhibition 5-HETE) | inhibition at 15 µM (5-lipoxygenase; read-out: % Inhibition LTB) | also measured |
| --- | --- | --- | --- |
| COc1ccc(CC2CC(C)(C)c3cc(OC)cc(OC)c3C2=O)cc1 (stereo not drawn) [drawing 85 [A=drawing 86; B=H]] | – | – | inhibition [1]: 0% |
| COc1ccc(C2CC(=O)Cc3c(OC)cccc3C2(C)C)cc1OC (stereo not drawn) [8-(3,4-dimethoxyphenyl)-9,9-dimethyl-4-methoxy-5,7,8,9-tetrahydro-6H-benzocyclohepten-6-one] | 61% | 22% | – |
| CC(=O)Oc1cc(OC(C)=O)c2c(c1)C(C)(C)C(c1ccc(OC(C)=O)c(OC(C)=O)c1)CC2=O (stereo not drawn) | – | – | inhibition at 50 µM [1]: 48% |
| COc1cc(OC)c2c(c1)C(C)(C)C(c1ccc(OC)c(OC)c1)CC(Sc1ccccc1)C2=O (stereo not drawn) | 61% | – | – |
| COc1ccc(C2=CC(=O)c3c(OC)cccc3C2(C)C)cc1OC | 28% | – | – |
| COc1cc(O)c2c(c1)C(C)(C)C(c1ccc(OC)c(OC)c1)=CC2=O | – | – | inhibition at 50 µM [1]: 10% |
| COc1ccc2c(c1)C(C)(C)C(c1ccc(OC)c(OC)c1)=CC2=O | 79% | – | – |
| CC1(C)c2cc(O)cc(O)c2C(=O)CC1c1cccc(O)c1 (stereo not drawn) | 23% | – | – |
| COc1cc(OC)c2c(c1)C(C)(C)C(c1ccc(OC)c(OC)c1)CC2Sc1ccc(Cl)cc1 (stereo not drawn) [listing 1 of 2 here] | 36% | – | – |
| CC(=O)Oc1cc(OC(C)=O)c2c(c1)C(C)(C)[C@H](c1ccc(OC(C)=O)c(OC(C)=O)c1)[C@@H](OC(C)=O)C2=O (relative stereo) | – | – | inhibition at 50 µM [1]: 41% |
| CC(=O)Oc1cc(OC(C)=O)c2c(c1)C(C)(C)[C@H](c1ccc(OC(C)=O)c(OC(C)=O)c1)[C@H](OC(C)=O)C2=O (relative stereo) | – | – | inhibition at 50 µM [1]: 26% |
| COc1cc(OC)c2c(c1)C(C)(C)[C@H](c1ccc(OC)c(OC)c1)[C@@H](OC(C)=O)C2=O (relative stereo) | – | – | inhibition at 50 µM [1]: 12% |
| COc1cc(OC)c2c(c1)C(C)(C)C(c1ccc(OC)c(OC)c1)CC21OCCO1 (stereo not drawn) | – | – | inhibition [1]: 23% |
| CC1(C)c2cc(O)cc(O)c2C(=NO)CC1c1cc(O)cc(O)c1 (stereo not drawn) | 57% | – | – |
| COc1cc(O)c2c(c1)C(C)(C)C(c1ccc(OC)c(OC)c1)CC2=O (stereo not drawn) | 0% | – | – |
| COc1ccc(CC2(Cc3ccc(OC)cc3)CC(C)(C)c3cc(OC)cc(OC)c3C2=O)cc1 [drawing 85 [A=drawing 87; B=drawing 88]] | – | – | inhibition [1]: 16% |
| COc1cc(OC)c2c(c1)C(C)(C)C(c1ccc(OC)c(OC)c1)CC2=NNC(=O)c1ccccc1O (stereo not drawn) | 41% | 50% | – |
| CC1(C)c2cc(O)cc(O)c2C(=O)CCC1c1ccc(O)c(O)c1 (stereo not drawn) [drawing 107 [X=O; db no; W,J,F=H; E,G,L,P=OH]] | 88% | – | – |
| COc1ccc(CC2(Cc3ccc(OC)cc3)CC(C)(C)c3cc(OC)cc(OC)c3C2=O)cc1 [drawing 102 [A=drawing 104; B=drawing 105]] | 88% | – | – |
| COc1cc(OC)c2c(c1)C(C)(C)C(c1ccc(OC)c(OC)c1)CC2=NNC(=O)c1ccccc1 (stereo not drawn) | 22% | 38% | – |
| COc1cc(OC)c2c(c1)C(C)(C)C(c1ccc(OC)c(OC)c1)=C(O)C2=O | – | – | inhibition at 50 µM [1]: 24% |
| COc1cc(O)c2c(c1)C(C)(C)C(c1cc(O)cc(O)c1)CC2=O (stereo not drawn) | 75% | – | – |
| CC1(C)C(c2cc(O)cc(O)c2)=CC(=O)c2c(O)cc(O)cc21 | 11% | – | – |
| COc1cc(OC)cc(C2=CC(=O)c3c(OC)cc(OC)cc3C2(C)C)c1 [drawing 84 [K=H]] | – | – | inhibition [1]: 33% |
| COc1ccc(C2CC(=O)c3c(OC)cccc3C2(C)C)cc1OC (stereo not drawn) | 23% | – | – |
| COc1cc(OC)c2c(c1)C(C)(C)C(c1ccc(OC)c(OC)c1)CC2Sc1ccc(Cl)cc1 (stereo not drawn) [listing 2 of 2 here] | – | – | inhibition [1]: 14% |
| CC1=C(c2ccc(O)c(O)c2)C(C)(C)c2cc(O)cc(O)c2C1=O | 90% | 96% | inhibition at 5 µM (5-lipoxygenase; read-out: % Inhibition 5-HETE): 13%; inhibition at 5 µM (5-lipoxygenase; read-out: % Inhibition LTB): 46% |
| COc1cc(OC)c2c(c1)C(C)(C)CC(c1ccccc1)C2=O (stereo not drawn) [drawing 102 [A=C6H5; B=H]] | 64% | – | – |

Continued, in another order:

| inhibition at 15 µM (5-lipoxygenase; read-out: % Inhibition 5-HETE) | inhibition at 15 µM (5-lipoxygenase; read-out: % Inhibition LTB) | SMILES | also measured |
| --- | --- | --- | --- |
| 48% | – | COc1cc(OC)c2c(c1)C(C)(C)C(c1ccc(OC)c(OC)c1)C=CC2=O (stereo not drawn) | – |
| 0% | 0% | COc1cc(OC)cc(C2=CC(=O)c3c(OC)cc(OC)cc3C2(C)C)c1 | – |
| 13% | 18% | COc1cc(OC)c2c(c1)C(C)(C)C(c1ccc(OC)c(OC)c1)CC2=NOC(C)=O (stereo not drawn) | – |
| 0% | – | COc1cc(OC)c2c(c1)C(C)(C)C(c1ccc(OC)c(OC)c1)CC2=NOC(=O)C(C)(C)C (stereo not drawn) | – |
| – | 0% | C=CCC1C(=O)c2c(OC)cc(OC)cc2C(C)(C)C1c1ccc(OC)c(OC)c1 (stereo not drawn) | – |
| 7% | 1% | COc1cc(OC)cc(C2=CC(=O)c3c(cc(OC)c(OC)c3OC)C2(C)C)c1 [drawing 101 [R3/R4=O; E,G,P,L,K=OCH3; db yes]] | – |
| 39% | 28% | COc1cc(OC)c2c(c1)C(C)(C)C(c1ccc(OC)c(OC)c1)CCO2 (stereo not drawn) [drawing 106 [X=O; R3/R4=H,H; J=H; L,P=OCH3]] | – |
| 0% | 0% | COc1cc(OC)c2c(c1)C(C)(C)C(c1ccc(OC)c(OC)c1)CC2=NNC(C)=O (stereo not drawn) | – |
| 46% | 46% | COc1cc(OC)cc(C2CCC(=O)c3c(OC)cc(OC)cc3C2(C)C)c1 (stereo not drawn) [8-(3,5-dimethoxyphenyl)-6,7,8,9-tetradydro-2,4-dimethoxy-9,9-dimethyl-5H-benzocyclohepten-5-one] | – |
| 35% | – | COc1cc(OC)c2c(c1)C(C)(C)C(c1ccc(OC)c(OC)c1)CC2=NN (stereo not drawn) | – |
| 69% | 89% | CCOC(=O)C1C(=O)c2c(OC)cc(OC)cc2C(C)(C)C1c1ccc(OC)c(OC)c1 (stereo not drawn) | – |
| 20% | 2% | COc1cc(OC)c2c(c1)C(C)(C)C(c1ccc(OC)c(OC)c1)C(C)C(=O)O2 (stereo not drawn) [drawing 106 [X=O; R3/R4=O; J=CH3; L,P=OCH3], 4-(3,4-dimethoxyphenyl)-4,5-dihydro-7,9-dimethoxy-3,5,5-trimethyl-1-benzoxepin-2(3H)-one] | – |
| 55% | 47% | CON=C1CC(c2ccc(OC)c(OC)c2)C(C)(C)c2cc(OC)cc(OC)c21 (stereo not drawn) | – |
| 86% | – | COc1ccc(CC2CC(C)(C)c3cc(OC)cc(OC)c3C2=O)cc1 (stereo not drawn) [drawing 102 [A=drawing 103; B=H]] | – |

From patent US5225436A, “Aryl substituted naphthalene derivatives” (Schering Corporation, priority 1991, dated 1993)
